Each structure is given as a SMILES string. Where two headings read alike, the source gives them in different places.

We go through two molecules from patent US20130023535A1, “METHOD OF PREVENTING AND/OR TREATING DIABETIC NEUROPATHY” (Astellas Pharma Inc., priority 2007, published 2013).

Series [1] deals with STZ (streptozotocin)-induced diabetic rats. Conditions: vs vehicle group.
Procedure: STZ (streptozotocin)-induced diabetic rats were prepared according to the following procedure. STZ (45 mg/kg) was intravenously administered to rats at the age of 7 weeks. At week 2 after administration of STZ, the blood was collected from the tail vein and the blood glucose level was measured to confirm that the blood glucose level was increased to 300 mg/dl or more. In the administration group, the rats were grouped so as to minimize the variation in the mean values of body weight, blood glucose level and pain response threshold measured on the previous day of the administration of the drug. A non-administration group of STZ was separately prepared and used as Normal group. A test drug was orally administered once daily for 28 consecutive days. Paresthesia due to neuropathy was determined by a von Frey Test (pain threshold test) at two time points, at 1 hour after administration on day 28 and on day 7 of cessation of the drug after the last administration (Pain, vol. 53, pp. 81-88, 1993). The test was initiated after the rats were placed in a cage for observation and acclimated for at least 20 minutes. By using a digital von Frey Test model 2390 (manufactured by IITC Inc.), a tip end was lightly applied to a paw. When there was no response, an applied load was increased from 1 to 3 g. The pain threshold was determined as an applied load (g) at which an avoidance response such as paw withdrawal was observed. In each animal, the measurement was performed twice for each of the left and right paws, and the mean of the 4 values was calculated as a withdrawal threshold (g). The improvement of paresthesia was determined based on the recovery of the withdrawal threshold in a drug administration group as compared with a vehicle (distilled water) administration group. Statistical test was performed between the vehicle administration group and the drug administration groups. For confirming the onset of diabetic neuropathy, a Student's t-test was also performed to compare the vehicle administration group and the Normal group.
The target in the next series is T1, Cytochrome P-450 (1A2) (Homo sapiens, UniProt P05177).
T1 construct: 0.2 mg protein/mL human liver microsomes; from tissue; host or cells: human liver microsomes
T1 sequence (P05177 1-516): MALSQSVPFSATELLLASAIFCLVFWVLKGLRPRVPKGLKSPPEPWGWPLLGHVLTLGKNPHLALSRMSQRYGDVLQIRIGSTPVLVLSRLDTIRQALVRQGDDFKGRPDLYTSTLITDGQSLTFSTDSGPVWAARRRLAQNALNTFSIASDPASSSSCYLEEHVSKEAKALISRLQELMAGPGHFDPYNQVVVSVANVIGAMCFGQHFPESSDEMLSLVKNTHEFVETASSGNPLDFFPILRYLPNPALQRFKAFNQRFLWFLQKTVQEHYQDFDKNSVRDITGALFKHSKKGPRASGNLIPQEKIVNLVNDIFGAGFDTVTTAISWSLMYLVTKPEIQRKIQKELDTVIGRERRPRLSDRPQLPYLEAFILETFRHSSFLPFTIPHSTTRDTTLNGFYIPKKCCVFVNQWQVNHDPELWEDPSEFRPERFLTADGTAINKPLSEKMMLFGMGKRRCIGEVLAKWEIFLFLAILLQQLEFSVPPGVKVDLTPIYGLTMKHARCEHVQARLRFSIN
Put plainly: Test for Cytochrome P-450 (1A2) enzyme inhibition using human liver microsomes. The class given is in vitro ADME. The method, then: An experiment was performed according to the method of Rae Yuan et al. (Drug Metabolism and Disposition, 30(12), 1311-1319, 2002).
By using a 96-well plate, a test drug (0.3 to 10 μmol/L) was added to 100 mmol/L Na-K phosphate buffer (pH=7.4) containing 0.1 mmol/L ethylenediaminetetraacetic acid (EDTA), 1 mmol/L nicotinamide adenine dinucleotide phosphate (NADPH), and 0.2 mg protein/mL human liver microsomes, and the total volume was made up to 145 μL, and then, preincubation of the resulting mixture was started at 37° C. At 5 minutes after the start of preincubation, phenacetin (20 mmol/L) was added thereto as a substrate for P450(1A2), and the total volume was made up to 150 μL, and then, the resulting mixture was incubated at 37° C. for 20 minutes. Thereafter, 130 μL of acetonitrile was added to the sample to stop the reaction. For the sample in which the reaction was stopped, the concentration of acetaminophen which is a metabolite of phenacetin was determined using LC/MS/MS.
A production amount of acetaminophen in the absence of the test drug was taken as 100%, and a production amount of acetaminophen in the presence of the test drug was calculated for each concentration of the test drug. Based on the calculated production amount for each concentration of the test drug, a concentration of the test drug at which the production amount of acetaminophen was 50% (IC50 value) was calculated from the following equation. The test was performed for two cases, and a mean value was used for the calculation of each value.
Production amount [I] (%)=100/(1+[I]/IC50)
Production amount [I] (%): (Production amount of acetaminophen when the test compound concentration was [I])/(Production amount of acetaminophen in the absence of test compound)×100
A general note: Liver microsomes are a subcellular fraction often used to study metabolism.

For series [2], the system named is insulin-like growth factor 1 (IGF-1). Put plainly: Quantitative PCR of neurotrophic factor expression, dorsal root ganglia of STZ-induced diabetic rats. The class given is in vivo, rat. Conditions: 30 mg/kg. The method, then:
(§1) In order to verify whether (+)-2-[(1H-inden-7-yloxy)methyl]morpholine hydrochloride acts on the expression levels of neurotrophic factors, an improving effect of (+)-2-[(inden-7-yloxy)methyl]morpholine hydrochloride on a decrease in the expression levels of neurotrophic factors in the spinal cord and the dorsal root ganglia of STZ-induced diabetic rats was examined.
(§2) The expression levels of neurotrophic factors were measured in the animals on day 7 to 8 of cessation of the drug withdrawal after the repeated daily administration in each of the Normal group, the vehicle administration group (STZ-induced diabetic rats) and the drug administration group at a dose of 30 mg/kg (STZ-induced diabetic rats) in Example 2. The spinal cord lumbar region and the dorsal root ganglia (L4, L5, and L6) were excised and the total RNA was extracted from the excised specimens using an RNA extraction kit RNeasy (Qiagen). […] A quantitative PCR analysis was performed for the obtained cDNA using primers to fibroblast growth factor 2 (FGF-2), insulin-like growth factor 1 (IGF-1), and glyceraldehyde-3-phosphate dehydrogenase (G3PDH) by PRISM 7900 (ABI). […] The improving effect on a decrease in the expression levels of neurotrophic factors were determined based on the recovery on the expression levels of neurotrophic factors in the drug administration group as compared with the vehicle administration group. […]

Series [3] deals with STZ-induced diabetic rats. As to the kind of experiment: Motor nerve conduction velocity (MNCV) in STZ-induced diabetic rats. The class given is in vivo, rat. To be noted: 30 mg/kg.
Procedure: The measurement was performed using the method of Cameron et al. (The Journal of Experimental Physiology, vol. 74, pp. 917-926, 1989) with some modification.
1 were used. Further, the same test was performed also for the Normal group. The rats were anesthetized with sodium pentobarbital, and the temperature of the rectum was maintained at about 37.5° C. using a body temperature maintenance device for small animals, and then, the MNCV was measured using an evoked potential measurement device. First, a positive stimulating electrode was attached to a dorsal region. […] Then, an average waveform evoked by the stimulation was derived from bipolar recording electrodes inserted into a gastrocnemius muscle region of the hind limb of the same side, and the latency (sec) from the start of stimulation to the first deflection of an M-wave was measured. Thereafter, the tibial nerve around behind the knee was stimulated with a negative stimulating electrode in the same manner as above, and the latency (sec) was measured in the same manner as in the gastrocnemius muscle region. A value obtained by dividing a distance (m) between the two regions stimulated with the negative stimulating electrode by a difference (sec) in the M-wave latency measured in the above two stimulation experiments was determined to be an MNCV value. […]
Series [4] deals with fibroblast growth factor 2 (FGF-2). Put plainly: Quantitative PCR of neurotrophic factor expression, spinal cord lumbar region of STZ-induced diabetic rats. The format is in vivo, rat. To be noted: 30 mg/kg. The method, then: as §1, §2
The mark [5] stands for this setting: 30 mg/kg orally once daily for 28 days, measured on day 7 of cessation of drug.
The mark [6] stands for this setting: 30 mg/kg orally once daily, day 28 of repeated administration, 1 hour after administration.

In the case of `C1=Cc2cccc(OCC3CNCCO3)c2C1.Cl` (racemic) [(±)-2-[(inden-7-yloxy)methyl]morpholine hydrochloride], the “effect on the decrease in the withdrawal threshold (von Frey test)” value in series [1] (setting [5]) and in series [1] (setting [6]) was “significantly restored the decrease in the withdrawal threshold” each time.

By IC50 is commonly meant the concentration at which inhibition is half-maximal. A higher IC50 goes with weaker potency. In the case of `C1=Cc2cccc(OCC3CNCCO3)c2C1.Cl` (single isomer, unassigned; (+)) [(+)IDX, (+)-2-[(1H-inden-7-yloxy)methyl]morpholine hydrochloride], the “effect on the decrease in the withdrawal threshold (von Frey test)” value in series [1] (setting [5]) and in series [1] (setting [6]) was “significantly restored the decrease in the withdrawal threshold” each time. Also, the CYP inhibitory activity result at Cytochrome P-450 (1A2) was “extremely weak”. Moreover, on Cytochrome P-450 (1A2) (from difference between IC50 and Cmax at oral administration), the “possibility of drug-drug interaction by oral administration” value is reported as “extremely low”. Also, the concentration for half-maximal inhibition (IC50) against Cytochrome P-450 (1A2) (human liver microsomes, substrate phenacetin, acetaminophen production, mean of two cases) worked out at 8.1 µM. In series [2], the “effect on the decrease in the expression level of IGF-1” value was “significantly recovers the decrease in the expression levels”. In series [2] (p.o., day 7 to 8 of cessation, mean ± SEM, Normal 100.0, Vehicle 54.6), the “relative gene expression level of IGF-1 normalized by G3PDH” value is on record as 67.7 ± 3.2. This molecule also returned an MNCV in series [3] (p.o., day 7 to 8 of drug withdrawal after repeated daily administration, mean ± SEM, Normal 62.4, Vehicle 49.4) of 53.3 ± 1.1 m/s. For the same molecule, the “improving effect on a decrease in MNCV” value in series [3] (vs vehicle group) is recorded as “significant improving effect”. Further, in series [4], the “effect on the decrease in the expression level of FGF-2” value is given as “significantly recovers the decrease in the expression levels”. Further, the “relative gene expression level of FGF-2 normalized by G3PDH” value in series [4] (p.o., day 7 to 8 of cessation, mean ± SEM, Normal 100.0, Vehicle 66.9) is listed as 103.5 ± 4.9.
